Test results: US9394335B2, “Esters of glycyrrhetinic acid, preparation and cosmetic applications thereof” (GIULIANI S.P.A., priority 2012, dated 2016)

What was measured:
[1] = system: expression of the TNF-α gene in NCTC 2544 human keratinocytes; test: Inflammation assessment assay: expression of the TNF-α gene by RT-PCR in LPS-treated cells; type: cell-based; details: for anti-inflammatory effect (inhibiting the expression of the TNF-α gene): 2.5-5-10 μM, after 48 hrs of treatment; for anti-inflammatory effect (inhibiting the expression of the TNF-α gene) / inhibition of the expression of the TNF-α gene: LPS 5 μg/ml; for inhibition of the expression of the TNF-α gene: 48 hrs of treatment, compared to cells treated only with LPS
Procedure: The NCTC 2544 cells were treated at 37° C. for 48 hours, at 5% CO2, with: basal culture medium, containing 2.5% fetal bovine serum (negative control), with: basal culture medium, containing 2.5% fetal bovine serum supplemented with LPS (5 μg/ml) (positive control), with: basal culture medium, containing 2.5% fetal bovine serum supplemented with LPS (5 μg/ml) and 18-β-glycyrrhetinic acid (18-β) at a concentration of 2.5-5-10 μM, with: basal culture medium, containing 2.5% fetal bovine serum supplemented with LPS (5 μg/ml), and POLY-GLY-S at a concentration of 2.5-5-10 μM. The results are expressed as a percentage of inflammation as compared to cells treated with LPS. The values represent the mean values of 2 experiments in duplicate.
The anti-inflammatory effects of ester having formula (Ia) of Example 1 (referred to as ‘POLY-GLY-S’ for shortness of description) have been investigated in an in vitro inflammation model, on NCTC2544 human keratinocytes and using lipopolysaccharide (LPS) from E. coli as mediator of inflammatory state. The effect of derivative in the models used has been compared to that of 18-β-glycyrrhetic acid (referred to as ‘18-β’ for shortness of description).
Furthermore, the in vitro inflammatory potential of POLY-GLY-S towards a positive control (cells treated with 5 μg/ml lipopolysaccharide) was determined. The data obtained have been compared to those obtained, in the same experimental model, using 18-β.
Inflammation Assessment Assay
The expression of the TNF-α gene on NCTC 2544 cells was assessed by RT-PCR.
The gene expression analysis implies four steps: • 1. Cell treatment with active compounds for 48 hrs; • 2. RNA extraction; • 3. cDNA reverse transcription; • 4. quantitative […].
In experimental conditions, in connection with the results obtained in the previous MIT assay, POLY-GLY-S and 18-β have been tested at a concentration of 20 μM (final concentration in the culture medium). Both positive control and negative control have been tested.
When the cells (NCTC 2544 human keratinocytes) had reached about 80% confluence, they were removed with trypsin/EDTA and seeded at a density of 1×10^6 cells/ml in 12-well plates and then incubated at 37° C., 5% CO2 (24 h).
When the cells had reached about 80% confluence, the complete medium was removed; cells were washed with PBS 1× and incubated in EMEN (EBSS) with 2.5% FBS, supplemented with 2 mM L-glutamine, 1% NEAA solution and 1% antibiotic mixture at 37° C., 5% CO2 for at least 4 hrs.
POLY-GLY-S and 18-β were dissolved in EMEN supplemented with 2.5% FBS, 2 mM L-glutamine, 1% NEAA solution and 1% penicillin (10,000 U/ml)/streptomycin (10,000 μg/ml) mixture.
Controls only containing culture medium (negative control) and culture medium plus LPS (5 μg/ml) (positive control) have been included in each plate.
Cells were exposed to increasing concentrations of compounds to be tested, i.e. 2.5-5-10 μM.
To each well LPS at a concentration of 5 μg/ml was added. Each sample was tested in duplicate.
Then cells were incubated at 37° C., 5% CO2 for 24 hrs.
Total RNA was extracted from cells using a single homogeneous solution Tri-reagent (Sigma Aldrich) to isolate RNA following manufacturer's instructions.
The extracted and quantified total RNA was amplified using the “High-Capacity cDNA Reverse transcription Kit” (Applied Biosystems).
RT-PCR was carried out using TaqMan linear probes (Applied Biosystems). These probes are the most used and published detection system for qPCR applications. In stock probes and primer were selected based on previous specific bibliographic studies.
The relative quantification method was used where the gene relative concentration of interest (target) is compared with unknown samples to a calibrator or control sample (untreated cells).
10 μl TaqMan 2× Gene Expression master Mix and 1 μl 20× TaqMan Gene Expression were added to cDNA. […]

[2] = system: NCTC 2544 human keratinocytes; test: MTT assay, cell viability; type: cell-based; details: for tolerability by NCTC2544 human keratinocytes: 2.5-5 and 10 μM
Procedure: The data represent mean values ±standard deviation. Each treatment was carried out in duplicate.
The data are expressed as mean values ±standard deviation. Each treatment was carried out in duplicate.
The MTT test is useful to assess in vitro cell viability following the treatment with diluted compounds. The MTT method has been used as an indirect measure of cell viability.
The effects on NCTC 2544 cell proliferation from compounds 18-β and POLY-GLY-S at different concentrations have been examined.
The cells have been plated at low densities and treated with different concentrations of active compounds and negative control, in culture medium EMEM, without phenol red supplemented at 10% with FCS, 2 mM L-glutamine, 1% NEAA solution and 1% antibiotic mixture for 24, 48 and 72 hours and cell viability has been assessed by the MTT assay. The cell viability percentage compared to control (FIGS. 1-2) has been calculated after 24, 48 and 72 hours of incubation. […] The same results have been obtained after a prolonged cells exposure (48-72 hours) to tested compounds for all the considered concentrations.

[3] = cited from earlier work
[4] = 24 hours of incubation, all tested concentrations (18-β 2.5-80 μM, ester (Ia) 0.625-80 μM)
[5] = prolonged exposure 48-72 hours, all considered concentrations

Structure (SMILES) | anti-inflammatory effect (inhibiting the expression of the TNF-α gene) [1] | tolerability by NCTC2544 human keratinocytes [2] | cytotoxic effect on NCTC2544 compared to control (MTT, % viability) [2, 4] | cytotoxic effect on NCTC2544 compared to control (MTT, % viability) [2, 5] | solubility in ethanol ([3]; ethanol) | solubility in oils ([3]; oils) | solubility in water ([3]; water) | inhibition of the expression of the TNF-α gene ([1]; 2.5 μM) | inhibition of the expression of the TNF-α gene ([1]; 5 μM) | inhibition of the expression of the TNF-α gene ([1]; 10 μM) | reduction of the expression of the TNF-α gene ([1]; all the concentrations assayed, 48 hours of incubation (conclusions))
CC1(C)[C@@H](O)CC[C@]2(C)[C@H]3C(=O)C=C4[C@@H]5C[C@@](C)(C(=O)O)CC[C@]5(C)CC[C@@]4(C)[C@]3(C)CC[C@@H]12 [18-β, 18-Beta glycyrrhetinic acid, reference compound] | no longer had anti-inflammatory effect | well tolerated | none | same results | soluble | insoluble | insoluble | – | – | – | –
CC1(C)[C@@H](O)CC[C@]2(C)[C@H]3C(=O)C=C4[C@@H]5C[C@@](C)(C(=O)OCC(O)C(O)C(O)C(O)COCC(O)COCC(O)COCC(O)CO)CC[C@]5(C)CC[C@@]4(C)[C@]3(C)CC[C@@H]12 (stereo partly drawn) [POLY-GLY-S, glycyrrhetinic ester of polyglycerol-3-sorbitol] | significantly effective | well tolerated | none | same results | – | – | – | 43.99% | 40.71% | 54.36% | at least 50%
